Results on 2 molecules are retold here after patent publication US9878021B2, “Compositions and methods for treatment of retinal degenerative diseases” (MOR RESEARCH APPLICATIONS LTD., priority 2013, dated 2018).

Each structure is given as a SMILES string.

What all share (type): cell-based
The subject of data set [1] is RPE cells. Briefly: Conditioned media (SASP) applied on fresh RPE cells, morphology. As to conditions: applied 72 hours. The method, then:
The most significant effect of senescence, is the acquisition of a senescence-associated secretory phenotype (SASP). SASP can convert senescent cells to proinflammatory cells that promote the secretion of chemokines and cytokines that can affect the microenvironment, including in the human retina (16, 17). To examine the role of TAK1 in this process, RPE cells were treated with TAK1 inhibitor or with H2O2, alone or in combination. After 2 weeks, the media was collected from the three separate treatments, centrifuged and the supernatants (conditioned media) were applied on fresh RPE cells for 72 hours.

The subject of data set [2] is RPE cells (ARPE-19). As to the kind of experiment: Double-staining (annexin and propidium iodide) FACS assay of RPE cells. As to conditions: TAK1 inhibitor 1 μM 1 hour prior to H2O2 200 μM; untreated 1.25%, H2O2 alone 31%. The method, then: (§1) Double-staining (annexin and propidium iodide (PI)) assay of RPE cells. RPE cells (ARPE-19, available from ATCC) were treated for one hour with the TAK1 inhibitor {5Z-7-oxozeaenol (1 μM)}, following 200 μM H2O2 for one hour or left untreated. The cells were then washed with fresh medium and after 24 hours were trypsinized, stained, and analyzed by FACS. The percentage of cells in each cell-cycle phase (G1/G0, S, and G2/M) was determined by its DNA content (FL2A).
In general terms: In flow cytometry, cells or beads pass a laser one at a time.

Data set [3] has as its system p53, phospho-p38 in RPE cells. As to the kind of experiment: Western blot analysis of p53 and phospho-p38. How it is done: Western blot analysis was performed by standard protocols (11), p53, p38, phospho-p38, GADPH, and TAK1; antibodies were obtained from Enco, Israel.
In general terms: Immunoblotting shows a protein as a band on a membrane.

The subject of data set [4] is RPE cells (ARPE-19). As to the kind of experiment: FACS cell-cycle analysis by DNA content (FL2A). The method, then: as §1
Data set [5] deals with RPE cells. As to the kind of experiment: SA-β-gal (senescence marker) staining.
For data set [6], the system named is RPE cells. Briefly: RPE cell size quantification (hypertrophy). The note with it: TAK1 inhibition combined with oxidative stress, compared to stressed and normal cells. How it is done:
N=40 cells for each treatment.
One of the hallmarks of RPE senescence is cellular hypertrophy. RPE cell size is approximately […]; but upon oxidative stress or genetic mutation RPE cells can undergo enlargement.

A further data set concerns ARPE-19 cells. As to the kind of experiment: Cell viability / proliferation XTT assay. How it is done:
Cell viability assays ARPE-19 cells were seeded in 96-well plates (5000 cells/well) in full medium and were pretreated with the TAK1 inhibitor 5Z-7-oxozeaenol (1 μM) or left untreated for 1 hour. Their viability was then assayed by the XTT assay (cell proliferation kit cat #20-300-1000; Beit Haemek, Israel).
(§2) To determine possible toxicity of anisomycin to RPE cells, RPE cells were treated with anisomycin at different concentration for 5 minute periods. Following treatment, the medium was replaced and fresh medium was added. 72 hours post-treatment, the cells were photographed. […] Their viability was then assayed by the XTT assay.
A general note: Tetrazolium dyes change colour on reduction, which living cells bring about.

For data set [7], the system named is RPE cells. As to the kind of experiment: Anisomycin toxicity to RPE cells, cellular morphology. As to conditions: different concentrations for 5 minute periods, 72 hours post-treatment; low levels. How it is done: as §2

On to `COc1cc(O)c2c(c1)/C=C/C[C@H](O)[C@H](O)C(=O)/C=C\C[C@H](C)OC2=O` [5Z-7-oxozeaenol], for which the “phenotype of fresh RPE cells receiving conditioned medium” value is listed as “hypertrophic phenotype similar to that of senescent cells” in the data set with RPE cells [1] (medium from cells treated with TAK1 inhibitor alone, 2 weeks); “aberrant morphology similar to that of atrophic RPE cells” in the data set on RPE cells [1] (medium from cells treated with both TAK1 inhibitor and H2O2, 2 weeks). Besides, the “number of apoptotic cells expressed as a percentage of the total number” value in the data set on RPE cells (ARPE-19) [2] is on record as 24%. The p38 phosphorylation result in data set [3] (RPE cells under oxidative stress, pretreated with TAK1 inhibitor 1 μM) is “inhibition of p38 phosphorylation”. The “p53 expression levels over a longer period” value in data set [3] (TAK1 inhibition, days, compared to untreated cells) is reported as “reduced p53 expression levels slightly more than the untreated cells”. In addition, the “time at which p53 expression peaked” value in data set [3] (pretreated cells under oxidative stress, control cells peak after 60 min) is 10 min. The “G2/M arrest under oxidative stress” value in the data set on RPE cells (ARPE-19) [4] (TAK1 inhibition prior to H2O2 treatment) was “reduced”. In addition, the “percentage of cells at the G0/G1 stage” value in the data set with RPE cells (ARPE-19) [4] (following TAK1 inhibition, of the total number) is 89%. Further, the “number of cells expressing SA-β-gal” value in the data set on RPE cells [5] (TAK1 inhibitor alone, relative to untreated cells) is recorded as “dramatically increased”. For the same molecule, in the data set on RPE cells [5] (pretreatment with TAK1 inhibitor then oxidative stress (H2O2), days 13 and 16), the SA-β-gal expression result is on record as “strongly increased”. In the data set on RPE cells [6], the cell size entry is recorded as “further increases cell size”. In addition, the “proliferation rate (optical density)” value with ARPE-19 cells (1 μM pretreatment 1 hour, untreated cells peak on day 4) is “slower proliferation rate that began to decrease after 3 days”.

For the molecule `COc1ccc(C[C@H]2NC[C@H](O)[C@H]2OC(C)=O)cc1` [anisomycin, (2R,3S,4S)-4-hydroxy-2-(4-methoxybenzyl)-pyrrolidin-3-yl acetate], the “toxicity to RPE cells (cellular morphology vs control)” value in the data set with RPE cells [7] is given as “not toxic”. The “number of SA-β-Gal positive cells” value in the data set on RPE cells [5] (H2O2 1 hour, 10 days growth, anisomycin 10 ng/ml 5 min, five more days, vs untreated cells exposed to oxidative stress) is on record as “reduces the number of SA-β-Gal positive cells”. Besides, the “rate of cell proliferation” value in the data set on ARPE-19 cells (oxidative stress and anisomycin) is given as “did not display reduction”.
